{"source": "patent US20190298722A1", "about": "“USE OF AN INHIBITOR OF THE DE NOVO SYNTHESIS OF PURINES, IN THE TREATMENT OF ADENYLOSUCCINATE LYASE DEFICIENCY” (ASSISTANCE PUBLIQUE-HOPITAUX DE PARIS, priority 2016, published 2019)", "system": "patients with ADSL deficiency", "experiment": "Conners scale (parents and teachers) during allopurinol treatment", "format": "in vivo, human", "method": "Clinical characterization of the patients was carried out before starting treatment (T1) in accordance with the ICD 10 classification, using standardized tools: • A semi-structured interview by means of the Autism Diagnostic Interview (ADI-R): this is a semi-structured interview intended to classify symptoms reported by parents in the domain of communication, social interaction, restricted and stereotyped behaviours or sensory issues. Scores are established for the current period and, if necessary, for the period when the difficulties were most serious, between the ages of 4 and 5 years. A score is established for each of the three domains based on responses provided by the parents and the judgement of the interviewer. Scores above the thresholds in the 3 domains support a diagnosis of autism, and in one or two domains support a diagnosis of a pervasive developmental disorder. Scores below the thresholds in the 3 domains make it possible to rule out diagnosis of an autism spectrum disorder if the ADI-R results converge with the clinical assessment of the child. • A semi-structured interview using the Vineland 2 scale: this is a semi-structured interview which makes it possible to assess the adaptive skills of the child in the domains of communication, daily life, social skills and motor skills. From the description of their child's daily living skills, equivalent developmental ages and standardized scores are calculated, making it possible to describe the developmental and adaptive profile of the child. • A developmental assessment using the Psychoeducational Profile (PEP 3): this is a direct assessment of the skills of the child in several domains of their development, particularly suited to children who display a developmental disability. Six domains of development are assessed: verbal and preverbal cognition (VPC), expressive language (EL), receptive language (RL), gross motor skills (GM), fine motor skills (FM) and visual-motor imitation (VMI). The results are expressed in terms of equivalent developmental age and emerging score, when the exercises are partially completed. The number of emerging skills, or the difference between the actual ages and the emerging scores, are evidence of the development potential of the children. • The Conners scale: this is an assessment scale intended to quantify the symptoms of inattentiveness, agitation, impulsiveness, anxiety, somatization, behavioural difficulties and learning difficulties. There are several versions of the questionnaire, one for parents, the other for teachers or professionals. The scoring makes it possible to obtain an overall standardized score, considered to be significant when it is greater than 1.5.\nClinical re-assessments were carried out 6 months and one year after treatment with allopurinol and compared to the first assessment in the absence of treatment with allopurinol. They comprised: • At 6 months: scoring of the Vineland and Conners scales • At 12 months: scoring of the Vineland and Conners scales and completion of PEP-3.\nClinical progress at 200 mg of allopurinol was measured for each child based on the Conner and Vineland scale scores before treatment (T1), at 6 months (T2) and at 12 months of treatment (T3) with regard to behaviour and function."}
{"smiles": "O=c1ncnc2[nH][nH]cc1-2", "note": "[allopurinol, 1,2-dihydro-4H-pyrazolo[3,4-d]pyrimidin-4-one]", "values": [{"measurement": "overall clinical outcome", "setting": "3 patients during treatment with allopurinol, more significant in the youngest patient (P3)", "value": "clinical improvement"}, {"measurement": "Conners v-score, scale completed by the parents", "setting": "3 patients, T1, T2, T3", "value": "reduction in the v-score"}, {"measurement": "scores on the Conners scale (parents and teachers)", "setting": "3 patients, during treatment", "value": "reduction"}, {"measurement": "Conners score, Teachers", "setting": "Patient 1, T2 (6 months), T1 2.2, significant when >1.5", "value": 1.5}, {"measurement": "Conners score, Parents", "setting": "Patient 1, T2 (6 months), T1 2.3", "value": 1.6}, {"measurement": "Conners score, Teachers", "setting": "Patient 1, T3 (12 months), T1 2.2", "value": 1}, {"measurement": "Conners score, Parents", "setting": "Patient 1, T3 (12 months), T1 2.3", "value": 1.8}, {"measurement": "Conners score, Parents", "setting": "Patient 2, T2 (6 months), T1 1", "value": 0.8}, {"measurement": "Conners score, Teachers", "setting": "Patient 2, T2 (6 months), T1 2", "value": 1.5}, {"measurement": "Conners score, Parents", "setting": "Patient 2, T3 (12 months), T1 1", "value": 0.5}, {"measurement": "Conners score, Teachers", "setting": "Patient 2, T3 (12 months), T1 2", "value": 1.4}, {"measurement": "Conners score, Parents", "setting": "Patient 3, T2 (6 months), T1 1.7", "value": 1.2}, {"measurement": "Conners score, Teachers", "setting": "Patient 3, T2 (6 months), T1 1.9", "value": 1.8}, {"measurement": "Conners score, Parents", "setting": "Patient 3, T3 (12 months), T1 1.7", "value": 1}, {"measurement": "Conners score, Teachers", "setting": "Patient 3, T3 (12 months), T1 1.9", "value": 1}, {"measurement": "hyperactivity reported by the parents and teachers", "setting": "three children, allopurinol 200 mg/d", "value": "reduction in hyperactivity"}, {"measurement": "behavioural disorders", "setting": "three children, allopurinol 200 mg/d, after 6 and 12 months", "value": "substantial improvement"}, {"measurement": "behavioural disorders assessed using the Conners and Vineland scales", "setting": "three children, allopurinol 200 mg/d, after 6 months", "value": "substantial improvement"}]}
